Data: ChEMBL document CHEMBL4190279 (Eur J Med Chem, 2017)
The source made the active and inactive calls. The calls are words filed in the database; no cut-off is given here.

How the values were obtained:
[1] = test system: HBL-100; assay: Cell cycle arrest in human HBL100 cells assessed as accumulation at G1-phase at 0.2 uM after 24 hrs by propidium iodide staining based flow cytometry; type: functional
[2] = test system: HBL-100; assay: Cell cycle arrest in human HBL100 cells assessed as accumulation at subG1-phase at 1 uM after 24 hrs by propidium iodide staining based flow cytometry; type: functional
[3] = test system: WiDr; assay: Potency index, ratio of cisplatin GI50 to compound GI50 for human WiDr cells; type: functional
[4] = test system: A549; assay: Cell cycle arrest in human A549 cells assessed as accumulation at G1-phase at 0.2 uM after 24 hrs by propidium iodide staining based flow cytometry; type: functional
[5] = test system: HeLa; assay: Cell cycle arrest in human HeLa cells assessed as accumulation at subG1-phase at 1 uM after 24 hrs by propidium iodide staining based flow cytometry; type: functional
[6] = test system: T47D; assay: Potency index, ratio of cisplatin GI50 to compound GI50 for human T47D cells; type: functional
[7] = test system: SW1573; assay: Cell cycle arrest in human SW1573 cells assessed as accumulation at subG1-phase at 1 uM after 24 hrs by propidium iodide staining based flow cytometry; type: functional
[8] = target: T1, Cholinesterase (Equus caballus, UniProt P81908); assay: Mixed-type inhibition of equine serum BuChE assessed as enzyme-inhibitor complex using p-nitrophenyl butyrate as substrate by Lineweaver-Burk plot analysis
T1 sequence (P81908 whole entry): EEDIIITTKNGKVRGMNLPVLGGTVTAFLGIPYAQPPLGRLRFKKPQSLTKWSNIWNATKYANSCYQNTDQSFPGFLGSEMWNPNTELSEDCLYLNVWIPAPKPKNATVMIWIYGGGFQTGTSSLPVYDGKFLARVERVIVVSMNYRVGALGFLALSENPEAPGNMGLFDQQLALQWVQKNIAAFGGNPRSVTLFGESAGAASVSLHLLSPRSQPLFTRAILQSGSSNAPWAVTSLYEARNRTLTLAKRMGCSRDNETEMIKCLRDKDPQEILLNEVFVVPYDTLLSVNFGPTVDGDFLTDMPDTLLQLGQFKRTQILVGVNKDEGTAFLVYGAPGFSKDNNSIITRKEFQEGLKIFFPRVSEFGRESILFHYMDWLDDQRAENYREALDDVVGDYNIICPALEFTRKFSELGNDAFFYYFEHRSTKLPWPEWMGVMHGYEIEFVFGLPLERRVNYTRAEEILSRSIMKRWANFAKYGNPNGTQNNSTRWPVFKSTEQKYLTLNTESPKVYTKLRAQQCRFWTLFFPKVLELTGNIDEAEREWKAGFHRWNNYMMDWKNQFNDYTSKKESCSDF

[9] = test system: A549; assay: cells; conditions: Homo sapiens, A549, 48 h
Description: Antiproliferative activity against human A549 cells after 48 hrs by SRB assay

[10] = target: T1, Cholinesterase; assay: Mixed-type inhibition of equine serum BuChE assessed as enzyme-substrate-inhibitor complex using p-nitrophenyl butyrate as substrate by Lineweaver-Burk plot analysis
[11] = GPx-like activity of the compound assessed as velocity for H2O2 reduction by measuring oxidation of PhSH to (PhS)2 at 50 uM measured for 180 secs by spectrophotometric analysis; type: functional
[12] = test system: WiDr; assay: cells; conditions: Homo sapiens, 48 h
Description: Antiproliferative activity against human WiDr cells after 48 hrs by SRB assay

[13] = test system: HBL-100; assay: Potency index, ratio of 5-FU GI50 to compound GI50 for human HBL100 cells; type: functional
[14] = test system: HeLa; assay: Potency index, ratio of cisplatin GI50 to compound GI50 for human HeLa cells; type: functional
[15] = test system: WiDr; assay: Cell cycle arrest in human WiDr cells assessed as accumulation at G1-phase at 0.2 uM after 24 hrs by propidium iodide staining based flow cytometry; type: functional
[16] = test system: HBL-100; assay: cells; conditions: Homo sapiens, HBL-100, 48 h
Description: Antiproliferative activity against human HBL100 cells after 48 hrs by SRB assay

[17] = test system: A549; assay: Potency index, ratio of cisplatin GI50 to compound GI50 for human A549 cells; type: functional
[18] = test system: HeLa; assay: Cell cycle arrest in human HeLa cells assessed as accumulation at G1-phase at 0.2 uM after 24 hrs by propidium iodide staining based flow cytometry; type: functional
[19] = test system: T47D; assay: Potency index, ratio of 5-FU GI50 to compound GI50 for human T47D cells; type: functional
[20] = target: T2, Acetylcholinesterase (Electrophorus electricus, UniProt O42275); assay: Non-competitive inhibition of electric eel AChE assessed as enzyme-inhibitor complex using p-nitrophenyl acetate as substrate by Lineweaver-Burk plot analysis
T2 sequence (O42275 whole entry): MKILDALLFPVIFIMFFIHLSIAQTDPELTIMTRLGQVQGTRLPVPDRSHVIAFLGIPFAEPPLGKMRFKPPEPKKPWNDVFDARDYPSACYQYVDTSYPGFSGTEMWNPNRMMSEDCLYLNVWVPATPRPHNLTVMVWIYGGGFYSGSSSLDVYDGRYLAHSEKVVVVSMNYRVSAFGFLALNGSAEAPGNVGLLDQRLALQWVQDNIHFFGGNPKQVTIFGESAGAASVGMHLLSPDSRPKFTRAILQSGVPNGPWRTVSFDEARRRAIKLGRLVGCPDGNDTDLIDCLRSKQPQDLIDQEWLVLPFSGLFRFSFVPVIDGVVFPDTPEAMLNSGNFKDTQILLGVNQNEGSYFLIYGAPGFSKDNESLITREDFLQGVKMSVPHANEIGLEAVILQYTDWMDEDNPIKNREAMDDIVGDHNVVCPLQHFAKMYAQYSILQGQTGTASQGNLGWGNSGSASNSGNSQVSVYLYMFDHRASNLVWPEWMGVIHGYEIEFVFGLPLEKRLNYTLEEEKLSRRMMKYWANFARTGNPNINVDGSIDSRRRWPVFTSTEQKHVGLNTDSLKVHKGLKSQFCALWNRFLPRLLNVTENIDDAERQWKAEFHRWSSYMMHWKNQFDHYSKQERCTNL

[21] = target: T2, Acetylcholinesterase; assay: Non-competitive inhibition of electric eel AChE assessed as enzyme-substrate-inhibitor complex using p-nitrophenyl acetate as substrate by Lineweaver-Burk plot analysis
[22] = test system: SW1573; assay: Potency index, ratio of cisplatin GI50 to compound GI50 for human SW1573 cells; type: functional
[23] = test system: SW1573; assay: Cell cycle arrest in human SW1573 cells assessed as accumulation at G1-phase at 0.2 uM after 24 hrs by propidium iodide staining based flow cytometry; type: functional
[24] = test system: WiDr; assay: Potency index, ratio of 5-FU GI50 to compound GI50 for human WiDr cells; type: functional
[25] = in vitro; conditions: human, hTERT-BJ cells
Description: Antiproliferative activity against human hTERT-BJ cells after 48 hrs by SRB assay

[26] = Selectivity index, ratio of Ki for equine serum BuChE assessed as enzyme-substrate-inhibitor complex to Ki for electric eel AChE assessed as enzyme-substrate-inhibitor complex
[27] = GPx-like activity of the compound assessed as half life for H2O2 reduction by measuring oxidation of PhSH to (PhS)2 at 50 uM measured for 180 secs by spectrophotometric analysis relative to control; type: functional
[28] = test system: HBL-100; assay: Potency index, ratio of cisplatin GI50 to compound GI50 for human HBL100 cells; type: functional
[29] = GPx-like activity of the compound assessed as H2O2 reduction by measuring oxidation of PhSH to (PhS)2 at 50 uM measured for 180 secs by spectrophotometric analysis relative to control; type: functional
[30] = test system: T47D; assay: Cell cycle arrest in human T47D cells assessed as accumulation at G1-phase at 0.2 uM after 24 hrs by propidium iodide staining based flow cytometry; type: functional
[31] = test system: SW1573; assay: cells; conditions: Homo sapiens, SW1573, 48 h
Description: Antiproliferative activity against human SW1573 cells after 48 hrs by SRB assay

[32] = test system: HeLa; assay: Potency index, ratio of 5-FU GI50 to compound GI50 for human HeLa cells; type: functional
[33] = test system: T47D; assay: Cell cycle arrest in human T47D cells assessed as accumulation at subG1-phase at 1 uM after 24 hrs by propidium iodide staining based flow cytometry; type: functional
[34] = test system: A549; assay: Cell cycle arrest in human A549 cells assessed as accumulation at subG1-phase at 1 uM after 24 hrs by propidium iodide staining based flow cytometry; type: functional
[35] = test system: SW1573; assay: Potency index, ratio of 5-FU GI50 to compound GI50 for human SW1573 cells; type: functional
[36] = test system: HeLa; assay: cells; conditions: Homo sapiens, 48 h
Description: Antiproliferative activity against human HeLa cells after 48 hrs by SRB assay

[37] = test system: T47D; assay: cells; conditions: Homo sapiens, 48 h
Description: Antiproliferative activity against human T47D cells after 48 hrs by SRB assay

[38] = test system: WiDr; assay: Cell cycle arrest in human WiDr cells assessed as accumulation at subG1-phase at 1 uM after 24 hrs by propidium iodide staining based flow cytometry; type: functional
[39] = Selectivity index, ratio of GI50 for human hTERT-BJ cells to GI50 for human WiDr cells; type: toxicity; conditions: hTERT-BJ cells versus WiDr cells, read-out: RatioGI50
[40] = target: T2, Acetylcholinesterase; assay: Uncompetitive inhibition of electric eel AChE assessed as enzyme-substrate-inhibitor complex using p-nitrophenyl acetate as substrate by Lineweaver-Burk plot analysis
[41] = target: T1, Cholinesterase; assay: Non-competitive inhibition of equine serum BuChE assessed as enzyme-substrate-inhibitor complex using p-nitrophenyl butyrate as substrate by Lineweaver-Burk plot analysis
[42] = target: T1, Cholinesterase; assay: Non-competitive inhibition of equine serum BuChE assessed as enzyme-inhibitor complex using p-nitrophenyl butyrate as substrate by Lineweaver-Burk plot analysis

c1ccc2c(NCCCCCC[Se][Se]CCCCCCNc3c4c(nc5ccccc35)CCCC4)c3c(nc2c1)CCCC3
Activity [1]: Active | Activity [2]: >50% | RatioGI50 [3]: <=162 | Activity [4]: Active | Activity [5]: Active | RatioGI50 [6]: <=162 | Activity [7]: Active | Ki [8]: 0.0433 µM | GI50 [9]: 0.14 µM | Ki [10]: 0.0733 µM | Activity [11]: 36.5 µM/min | GI50 [12]: 0.24 µM | RatioGI50 [13]: <=306 | RatioGI50 [14]: <=162 | Activity [15]: Active | GI50 [16]: 0.17 µM | RatioGI50 [17]: <=162 | Activity [18]: Active | RatioGI50 [19]: <=306 | Ki [20]: 0.0263 µM | Ki [21]: 0.0263 µM | RatioGI50 [22]: <=162 | Activity [23]: Active | RatioGI50 [24]: <=306 | GI50 at 48 h [25]: 0.24 µM | Ratio Ki [26]: 2.8 | T1/2 [27]: 1.14 h | RatioGI50 [28]: <=162 | fold change (FC) [29]: 4.7 | Activity [30]: Active | GI50 [31]: 0.13 µM | RatioGI50 [32]: <=306 | Activity [33]: >50% | Activity [34]: Active | RatioGI50 [35]: <=306 | GI50 [36]: 0.16 µM | GI50 [37]: 0.21 µM | Activity [38]: Active

c1ccc([Se]CCCCCCNc2c3c(nc4ccccc24)CCCC3)cc1
selectivity ratio [39]: ≤ 4.7 | GI50 [9]: 0.86 µM | Activity [11]: 19.6 µM/min | GI50 [12]: 0.89 µM | Ki [40]: 0.008 µM | Ki [41]: 0.057 µM | GI50 [16]: 2 µM | GI50 at 48 h [25]: 2.4 µM | Ratio Ki [26]: 7.1 | T1/2 [27]: 2.13 h | fold change (FC) [29]: 2.5 | GI50 [31]: 1.1 µM | Ki [42]: 0.057 µM | GI50 [36]: 1.2 µM | GI50 [37]: 0.66 µM
